Experiments:
[1] = test system: localized GvHD; experiment: localized GvHD, inhibition of lymph node swelling; type: in vivo; details: dosage of 3 mg
Method: (§1) In the localized GvHD, maximal inhibition (70-80%) of lymph node swelling is achieved with a dosage of 3 mg with 40-O-(2-hydroxy)ethyl-rapamycin in crystalline form.

[2] = in vitro and in vivo immunosuppressive activity; details: crystalline form compared with amorphous form
Method: as §1

[3] = storage stability, sum of by-products and degradation products after 1 week storage; type: physicochemical; details: 50° C. in open flask
From the text: The sum of by-products and degradation products in % after 1 week storage are as follows: […]

Row | SMILES | maximal inhibition of lymph node swelling [1] | in vitro and in vivo immunosuppressive activity [2] | sum of by-products and degradation products [3]
1 | CO[C@H]1C[C@@H]2CC[C@@H](C)[C@@](O)(O2)C(=O)C(=O)N2CCCC[C@H]2C(=O)O[C@H]([C@H](C)C[C@@H]2CC[C@@H](OCCO)[C@H](OC)C2)CC(=O)[C@H](C)/C=C(\C)[C@@H](O)[C@@H](OC)C(=O)[C@H](C)C[C@H](C)/C=C/C=C/C=C/1C [40-O-(2-hydroxy)ethyl-rapamycin] | 70-80% | comparable to that of the amorphous form | –
2 | CO[C@H]1C[C@@H]2CC[C@@H](C)[C@@](O)(O2)C(=O)C(=O)N2CCCC[C@H]2C(=O)O[C@H]([C@H](C)C[C@@H]2CC[C@@H](OCCO)[C@H](OC)C2)CC(=O)[C@H](C)/C=C(\C)[C@@H](O)[C@@H](OC)C(=O)[C@H](C)C[C@H](C)/C=C/C=C/C=C/1C [Without BHT, 40-O-(2-hydroxy)ethyl-rapamycin] | – | – | >10%

Source: US7741338B2, “Macrolides” (Novartis AG, priority 1998, dated 2010)
